Target: T1, α7 nAChR (Homo sapiens, UniProt P36544)
T1 construct: expressed in transfected cells; host or cells: Xenopus oocytes (cRNA injection)
Assay: α7 nAChR positive allosteric modulator activity assay, voltage clamp in Xenopus oocytes with 100 μM ACh
Assay type: cell-based
Conditions: for activity at 10 µM: at 10 μM compound, current induced by 100 μM ACh, Xenopus oocytes expressing α7 nAChR, read-out: Max Mod (%, at 10 μM); for EC50: potentiation of current induced by 100 μM ACh, Hill equation fit
Procedure: The experimental process was as follows:
(1) Xenopus oocytes were injected with cRNA encoding α7 nAChR in order to express α7 nAChR on the cell membrane successfully;
(2) 100 μM ACh alone was added, and the α7 nAChR characteristic current caused by it was recorded as a control;
(5) The oocytes were incubated for 1 min with 10 μM compound, then 10 µM compound and 100 μM ACh were added simultaneously and the current induced by ACh was recorded at this time;
(6) The differences between the two currents in terms of peak intensity and duration were compared, with the ratio of peak intensity of the two currents representing the adjustment effect (Enhance Rate), in order to determine whether the compound had PAM activity, if the activity was good, then the subsequent test was carried out;
(7) Concentration gradient was set and the effects of compounds at different concentrations on the α7 nAChR characteristic current induced by 100 μM ACh were evaluated. Several determinations were carried out at the same concentration, and the results were presented in the form of “mean±standard deviation”;
(8) The EC50 (median maximum effect concentration) values and Max mod (the current amplitude caused by the maximal degree of adjustable endogenous agonist acetylcholine) values of the compounds and other activity data were obtained by Hill equation Inormalized=Emax/(1+(EC50/C)nH).
The amplitude of the peak current is only normalized by the amplitude produced by 100 μM ACh and different concentrations of LD486. […] It can be seen from FIG. 3 that the Hill equation is used to fit the dose-response curve and calculate the kinetic parameters.

T1 sequence (P36544 23-502): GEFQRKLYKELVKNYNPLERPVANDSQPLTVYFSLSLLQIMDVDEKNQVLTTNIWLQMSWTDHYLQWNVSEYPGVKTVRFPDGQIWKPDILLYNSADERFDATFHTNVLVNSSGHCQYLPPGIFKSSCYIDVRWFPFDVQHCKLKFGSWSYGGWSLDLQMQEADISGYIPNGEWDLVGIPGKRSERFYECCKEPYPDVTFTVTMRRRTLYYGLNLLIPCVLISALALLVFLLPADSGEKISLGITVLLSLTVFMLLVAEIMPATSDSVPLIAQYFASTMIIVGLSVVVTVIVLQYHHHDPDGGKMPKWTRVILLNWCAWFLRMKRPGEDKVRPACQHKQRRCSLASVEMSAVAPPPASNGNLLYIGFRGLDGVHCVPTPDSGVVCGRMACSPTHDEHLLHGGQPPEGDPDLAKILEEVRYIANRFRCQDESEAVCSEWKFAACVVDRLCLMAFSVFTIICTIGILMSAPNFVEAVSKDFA

Compound	activity at 10 µM	EC50
Cc1cccc(Cl)c1-n1cnc2nc(N(C)c3ccccc3)sc2c1=O [JWX-A1114, 6-(2-Chloro-6-methylphenyl)-2-(methyl(phenyl)amino)thiazolo[4,5-d]pyrimidin-7(6H)-one]	150%	10 µM
Cc1cccc(Cl)c1-n1cnc2nc(SCc3ccccc3)sc2c1=O [JWX-A1223, 6-(2-chloro-6-methylphenyl)-2-(Benzylthio)thiazolo[4,5-d]pyrimidin-7(6H)-one]	–	1.26 µM
Cc1cccc(Cl)c1-n1cnc2nc(O)sc2c1=O [JWX-A0903, 6-(2-Chloro-6-methylphenyl)-2-hydroxythiazolo[4,5-d]pyrimidin-7(6H)-one]	110%	–
Cc1cccc(Cl)c1-n1cnc2nc(SCc3ccccc3F)sc2c1=O [LYH150309-2F, 6-(2-Chloro-6-methylphenyl)-2-((2-fluorobenzyl)thio)thiazolo[4,5-d]pyrimidin-7(6H)-one]	620%	4.18 µM
Cc1ccc(C(=O)Nc2nc3ncn(-c4c(C)cccc4Cl)c(=O)c3s2)cc1 [JWX-A0310, N-(6-(2-Chloro-6-methylphenyl)-7-oxo-6,7-dihydrothiazolo[4,5-d]pyrimidin-2-yl)-4-methylbenzamide]	450%	10 µM
Cc1cccc(Cl)c1-n1cnc2nc(NC(=O)c3ccc(Br)cc3)sc2c1=O [JWX-A-C1122, N-(6-(2-chloro-6-methylphenyl)-7-oxo-6,7-dihydrothiazolo[4,5-d]pyrimidin-2-yl)-4-bromobenzamide]	1000%	9.8 µM
Cc1cccc(Cl)c1-n1cnc2nc(SCc3ccc(C(F)(F)F)cc3)sc2c1=O [LYH150409-4CF3, 6-(2-Chloro-6-methylphenyl)-2-((4-(trifluoromethyl)benzyl)thio)thiazolo[4,5-d]pyrimidin-7(6H)-one]	140%	10 µM
Cc1cccc(Cl)c1-n1cnc2nc(-c3ccccc3)sc2c1=O [JWX-C1200, 6-(2-Chloro-6-methylphenyl)-2-phenylthiazolo[4,5-d]pyrimidin-7(6H)-one]	110%	–
CSc1nc2nnn(-c3c(Cl)cccc3Cl)c(=O)c2s1 [LD496, 3-(2,6-Dichlorophenyl)-6-(methylthio) thiazolo[4,5-d][1,2,3]triazin-4(3H)-one]	110%	–
CSc1nc2ncn(-c3c(Cl)cccc3Cl)c(=O)c2s1 [LD493, 6-(2,6-Dichlorophenyl)-2-(methylthio) thiazolo[4,5-d]pyrimidin-7(6H)-one]	110%	–
Cc1ccc(CSc2nc3ncn(-c4c(C)cccc4Cl)c(=O)c3s2)cc1 [LYH150318-4Me, 6-(2-Chloro-6-methylphenyl)-2-((4-methylbenzyl)thio)thiazolo[4,5-d]pyrimidin-7(6H)-one]	300%	10 µM
COc1ccc(C(=O)Nc2nc3ncn(-c4c(C)cccc4Cl)c(=O)c3s2)cc1 [JWX-A0312, N-(6-(2-Chloro-6-methylphenyl)-7-oxo-6,7-dihydrothiazolo[4,5-d]pyrimidin-2-yl)-4-methoxybenzamide]	630%	10 µM
Cc1nc(Nc2nc3ncn(-c4c(C)cccc4Cl)c(=O)c3s2)cc(N2CCN(CCO)CC2)n1 [JWX-A0728, 6-(2-Chloro-6-methylphenyl)-2-((6-(4-(2-hydroxyethyl)piperazin-1-yl)-2-methylpyrimidin-4-yl)amino)thiazolo[4,5-d]pyrimidin-7(6H)-one]	110%	–
COc1ccc(CSc2nc3ncn(-c4c(C)cccc4Cl)c(=O)c3s2)cc1 [LYH150326-4OCH3, 6-(2-Chloro-6-methylphenyl)-2-((4-methoxybenzyl)thio)thiazolo[4,5-d]pyrimidin-7(6H)-one]	300%	10 µM
Cc1cccc(Cl)c1-n1cnc2nc(NC(=O)c3ccc(Cl)cc3)sc2c1=O [JWX-A-C1020, N-(6-(2-Chloro-6-methylphenyl)-7-oxo-6,7-dihydrothiazolo[4,5-d]pyrimidin-2-yl)-4-chlorobenzamide]	350%	10 µM
Cc1cccc(Cl)c1-n1cnc2nc(NC(=O)c3ccc(C(F)(F)F)cc3)sc2c1=O [JWX-A-C1128, N-(6-(2-Chloro-6-methylphenyl)-7-oxo-6,7-dihydrothiazolo[4,5-d]pyrimidin-2-yl)-4-(trifluoromethyl)benzamide]	200%	10 µM

More lines, now with the values ahead:

activity at 10 µM	EC50	Compound
110%	–	Cc1cc(C)c(-n2cnc3nc(Nc4ccncc4)sc3c2=O)c(C)c1 [LD293, 6-Mesityl-2-(pyridin-4-ylamino)thiazolo[4,5-d]pyrimidin-7(6H)-one]
110%	–	Cc1ccc(-n2cnc3nc(Nc4ccc(C)c(F)c4)sc3c2=O)c(Cl)c1 [JWX-A-C0229, 6-(2-Chloro-4-methylphenyl)-2-((3-fluoro-4-methylphenyl)amino)thiazolo[4,5-d]pyrimidin-7(6H)-one]
600%	3.15 µM	Cc1cc(Nc2nc3ncn(-c4c(C)cccc4Cl)c(=O)c3s2)cc(C)c1C [JWX-A0322, 6-(2-Chloro-6-methylphenyl)-2-((3,4,5-trimethylphenyl)amino)thiazolo[4,5-d]pyrimidin-7(6H)-one]
300%	10 µM	Cc1cccc(Cl)c1-n1cnc2nc(Nc3cccc(Cl)c3)sc2c1=O [JWX-A1116, 6-(2-Chloro-6-methylphenyl)-2-((3-chlorophenyl)amino)thiazolo[4,5-d]pyrimidin-7(6H)-one]
300%	10 µM	Cc1cccc(Cl)c1-n1cnc2nc(Nc3ccccc3)sc2c1=O [JWX-A0824, 6-(2-Chloro-6-methylphenyl)-2-(phenylamino)thiazolo[4,5-d]pyrimidin-7(6H)-one]
200%	10 µM	Cc1ccc(Nc2nc3ncn(-c4c(C)cccc4Br)c(=O)c3s2)cc1F [JWX-A-C0106, 6-(2-Bromo-6-methylphenyl)-2-((3-fluoro-4-methylphenyl)amino)thiazolo[4,5-d]pyrimidin-7(6H)-one]
300%	10 µM	Cc1ccccc1Nc1nc2ncn(-c3c(C)cccc3Cl)c(=O)c2s1 [JWX-A0602, 6-(2-Chloro-6-methylphenyl)-2-(o-tolylamino)thiazolo[4,5-d]pyrimidin-7(6H)-one]
250%	10 µM	Cc1cccc(Cl)c1-n1cnc2nc(Nc3ccc(F)cc3)sc2c1=O [JWX-A1119, 6-(2-Chloro-6-methylphenyl)-2-((4-fluorophenyl)amino)thiazolo[4,5-d]pyrimidin-7(6H)-one]
380%	10 µM	Cc1ccc(Nc2nc3ncn(-c4ccccc4Cl)c(=O)c3s2)cc1F [JWX-A-C0831, 6-(2-Chlorophenyl)-2-((3-fluoro-4-methylphenyl)amino)thiazolo[4,5-d]pyrimidin-7(6H)-one]
–	3.39 µM	Cc1ccc(Nc2nc3ncn(-c4c(C)cccc4Cl)c(=O)c3s2)cc1F [JWX-A0108, 6-(2-Chloro-6-methylphenyl)-2-((3-fluoro-4-methylphenyl)amino)thiazolo[4,5-d]pyrimidin-7(6H)-one]
200%	10 µM	Cc1cccc(Cl)c1-n1cnc2nc(Nc3ccc(Cl)cc3)sc2c1=O [JWX-A1104, 6-(2-Chloro-6-methylphenyl)-2-((4-chlorophenyl)amino)thiazolo[4,5-d]pyrimidin-7(6H)-one]

Source: patent US10450326B2, “Thiazolopyrimidinone compounds and preparation methods and use thereof” (PEKING UNIVERSITY, priority 2015, dated 2019)
